Assay results taken from US20140378460A1, “COMPOSITIONS AND METHODS FOR TREATING NEURODEGENERATIVE DISEASE” (COGNITION THERAPEUTICS, INC., priority 2011, published 2014).
Where two headings read alike, the source gives them in different places.

Key:
[1] = test system: Abeta oligomer-induced membrane trafficking deficits in primary hippocampal neurons; assay: Membrane trafficking/exocytosis (MTT) assay; assay type: cell-based, rat; conditions: for IC50: read-out: Membrane trafficking IC50
Method: The methods used to generate the results were as follows in the Membrane Trafficking/Exocytosis (MTT) assay.
Primary hippocampal neurons from E18 Sprague-Dawley rat embryos were plated at optimized concentrations in 384 well plates in NB media (Invitrogen). Neurons were maintained in cultures for 3 weeks, with twice weekly feeding of NB media with N2 supplement (Invitrogen).
A test compound was added to cells at concentrations ranging from 100 uM to 0.001 nM followed by addition of vehicle or Abeta oligomer preparations (3 μM total Abeta protein concentration), and incubated for 1 to 24 hr at 37° C. in 5% CO2. MTT reagent (3-(4,5-dimethylthizaol-2-yl)-2,5diphenyl tetrazolium bromide) (Roche Molecular Biochemicals) was reconstituted in phosphate buffered saline to 5 mg/mL. 10 μl, of MTT labeling reagent is added to each well and incubated at 37° C. for 1 h, then imaged. Exocytosis was assessed by automated microscopy and image processing to quantify the amount of endocytosed and exocytosed formazan.
Each assay plate was formatted so that compounds are tested with and without Abeta oligomer on each plate.

[2] = test system: Abeta oligomer-induced synapse loss in primary hippocampal neurons; assay: Synapse loss assay; assay type: cell-based, rat; conditions: for Block synapse loss: Table 11B
Method: In this assay, Abeta oligomers were brought in contact with mature primary neurons in culture and their binding was determined by immunohistochemistry (anti-Abeta antibody) and quantified by image processing. The amount of Abeta in neuronal dendrites is assessed by counting the number of labeled puncta on the neuritis. […] This labeling is associated with synapses, co-localizing with the post-synaptic scaffold protein PSD-95 (Lacor et al., '04). […] The number of synapses can also be quantified in this assay by immunofluorochemistry. Similar procedures for binding assays can be found in the literature. […] Review.
Primary hippocampal neuronal culture was established as in the membrane trafficking assay above. […] Pretreatment with compounds to be tested lasted for 1 hr and addition of Abeta oligomers or no oligomer (vehicle alone) in a final concentration of 70 ul was followed by incubation for an additional 23 hrs.
The plates were then washed 3× with PBS for 5 min each. The plates were blocked at RT for 1 hr in 5% goat serum and 0.5% Triton X-100 in PBS. […] Primary antibodies were incubated overnight at 4° C. The plates were then washed 3× with PBS for 5 min each. […] Secondary antibodies were incubated at RT for 1 hr. The plates were washed once with PBS. DAPI (4′,6-diamidino-2-phenylindole, Invitrogen) was then applied at 0.03 ug/ul and incubated at RT for 5 min, then washed with PBS.

Sigma-1 receptors [3] = molecular target: Sigma-1 receptors (Homo sapiens, UniProt Q99720); assay: Sigma-1 competitive radioligand binding, [3H](+)pentazocine, Jurkat cell membranes
Sequence of Sigma-1 receptors (Homo sapiens, UniProt Q99720) (Q99720 whole entry): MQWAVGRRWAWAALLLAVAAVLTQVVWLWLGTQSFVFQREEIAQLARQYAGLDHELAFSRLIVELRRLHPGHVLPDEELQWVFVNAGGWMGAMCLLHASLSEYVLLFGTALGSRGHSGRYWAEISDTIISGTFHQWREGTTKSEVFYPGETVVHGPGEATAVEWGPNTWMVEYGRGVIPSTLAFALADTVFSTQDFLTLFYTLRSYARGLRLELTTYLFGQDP
Method: (§1) Reactions were terminated by rapid filtration through Whatman GF/C filters using a Brandel 12R cell harvester followed by two washes with ice-cold buffer. Radioactivity on the dried filter discs was measured using a liquid scintillation analyzer (Tri-Carb 2900TR; PerkinElmer Life and Analytical Sciences). The displacement curves were plotted and the Ki values of the test ligands for the receptor subtypes were determined using GraphPad Prism (GraphPad Software Inc., San Diego, Calif.). The percentage specific binding was determined by dividing the difference between total bound (disintegrations per minute) and nonspecific bound (disintegrations per minute) by the total bound (disintegrations per minute).

sigma-2 receptor [4] = molecular target: T1, sigma-2 receptor (Rattus norvegicus, UniProt Q5U3Y7); assay: Sigma-2 competitive radioligand binding, [3H]DTG with 300 nM (+)pentazocine, rat cerebral cortex membranes
T1 sequence (Q5U3Y7 1-176): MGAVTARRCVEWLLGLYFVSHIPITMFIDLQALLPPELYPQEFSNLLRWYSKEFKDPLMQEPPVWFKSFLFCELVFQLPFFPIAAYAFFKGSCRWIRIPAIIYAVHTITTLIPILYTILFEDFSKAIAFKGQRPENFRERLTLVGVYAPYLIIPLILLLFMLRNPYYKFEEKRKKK
Method: as §1

Sigma-1 receptors [5] = conditions: known prior art compounds; cited from earlier work
sigma-2 receptor [6] = molecular target: T1, sigma-2 receptor; set-up: other: known prior art compounds, published studies; conditions: cited from earlier work
Sigma-1 receptors [7] = molecular target: T2, Sigma-1 receptors (UniProt Q60492); conditions: cited from earlier work
T2 construct: other: known prior art compounds, published studies

[8] = test system: SKOV-3 human ovarian cancer cell line; assay: MTS tumor cell viability assay; assay type: cell-based; conditions: for Action: by EC50 relative to siramesine
Method: The cytotoxicity of compounds shown below was determined using the CellTiter96 Aqueous One Solution Assay (Promega, Madison, Wis.). […] The plate was read at 490 nm in a Victor3 plate reader (PerkinElmer Life and Analytical Sciences, Shelton, Conn.). The EC^50 value, defined as the concentration of the sigma ligand required to inhibit cell viability by 50% relative to untreated cells, was determined from the dose response curve for each cell line.

[9] = test system: caspase-3 in SKOV-3 human ovarian cancer cells; assay: Caspase-3 activity in tumor cells; assay type: cell-based
[10] = test system: caspase-3 in neuronal cultures; assay: Caspase-3 activity in neurons; assay type: cell-based
[11] = Sigma 1 Binding Ki (nM), Table 2, own compounds
[12] = Sigma 2 Binding Ki (nM), Table 2, own compounds
[13] = dosed prior to Abeta oligomer addition, read-out: EC50 in inhibiting amyloid beta effect in Cell Measured by Membrane Trafficking Assay
[14] = Table 11C, known prior art compounds, read-out: Inhibition Abeta oligomer-induced Membrane Trafficking EC50
[15] = Table 11C, read-out: S2 binding Ki
[16] = Table 11D, read-out: Sigma-2 Receptor Ki
[17] = known prior art compounds, published studies, read-out: Sigma 2 Binding Ki
[18] = Table 11C, read-out: S1 binding Ki
[19] = known prior art compounds, published studies, read-out: Sigma 1 Binding Ki
[20] = Rattus norvegicus, Hippocampal neuron, dosed prior to Abeta oligomer addition, read-out: EC50 in inhibiting amyloid beta effect in Cell Measured by Membrane Trafficking Assay
[21] = Rattus norvegicus, Hippocampal neuron, Table 11C, known prior art compounds, read-out: Inhibition Abeta oligomer-induced Membrane Trafficking EC50
[22] = scaffold drawing 245, R' varied, read-out: Membrane Trafficking EC50
[23] = Table 11D, read-out: Sigma-1 Receptor Ki

COc1cc(CCC(C)NCc2ccc(C(F)(F)F)cc2)ccc1O (single isomer, unassigned) [II (+) isomer]
EC50 ([1]; Rattus norvegicus, Hippocampal neuron, Table 11B, read-out: Inhibition Abeta oligomer-induced Membrane Trafficking EC50): 5600 nM
Functional Neuronal Phenotype ([1]; Table 11B): Antagonist
Block synapse loss [2]: 47%
Ki (Sigma-1 receptors [3]; S1 binding Ki (nM), Table 11B): 100 nM
Ki (Sigma-1 receptors [3]; [11]): 100 nM
Ki (sigma-2 receptor [4]; S2 binding Ki (nM), Table 11B): 80 nM
Ki (sigma-2 receptor [4]; [12]): 52 nM

COc1cc(CCC(C)NCc2ccc(C(F)(F)F)cc2)ccc1O (single isomer, unassigned) [II (−) isomer]
Functional Neuronal Phenotype ([1]; Table 11B): Antagonist
Block synapse loss [2]: 0%
Ki (Sigma-1 receptors [3]; S1 binding Ki (nM), Table 11B): 46 nM
Ki (Sigma-1 receptors [3]; [11]): 46 nM
Ki (sigma-2 receptor [4]; S2 binding Ki (nM), Table 11B): 63 nM
Ki (sigma-2 receptor [4]; [12]): 63 nM

COc1cc(CCC(C)NCc2ccc(C(F)(F)F)cc2)ccc1O (single isomer, unassigned; (+)) [(+) enantiomer of Cpd II]
EC50 ([1]; read-out: EC 50 in screening assay using single concentration of Abeta oligomer): 5600 nM

COc1cc(CCC(C)NCc2ccc(C(F)(F)F)cc2)ccc1O (single isomer, unassigned; (+)) [(+) enantiomer]
EC50 [1, 13]: 5600 nM

COc1cc(CCC(C)NCc2ccc(C(F)(F)F)cc2)ccc1O (single isomer, unassigned; (-)) [(−) enantiomer]
EC50 [1, 13]: 10900 nM

CN(CCc1ccc(Cl)c(Cl)c1)CCN1CCCC1 [BD1008]
Functional Neuronal Phenotype ([1]; Table 11C): Antagonist
EC50 [1, 14]: 1500 nM
Functional Neuronal Phenotype ([1]; Table 11D): Antagonist
IC50 ([1]; Table 11D): 1500 nM
Sigma 1 (Type of Activity) (Sigma-1 receptors [5]): (antagonist)
Ki (sigma-2 receptor [6]; [15]): 8 nM
Ki (sigma-2 receptor [6]; [16]): 8 nM
Ki (sigma-2 receptor [6]; [17]): 8 nM

CN1CCN(CCc2ccc(Cl)c(Cl)c2)CC1 [BD1063]
Functional Neuronal Phenotype ([1]; Table 11C): Inactive
EC50 [1, 14]: > 30000 nM
Ki (Sigma-1 receptors [7]; [18]): 8.8 nM
Ki (Sigma-1 receptors [7]; [19]): 8.8 nM
Sigma 1 (Type of Activity) (Sigma-1 receptors [5]): (antagonist)

CC(C)=CC(C[C@H](C)c1ccc(C)cc1)NCC(C)C (stereo partly shown) [Compound IXa]
Max Inhibition of Abeta (%) [1]: 76%
EC50 [1, 20]: 4900 nM
Ki (Sigma-1 receptors [3]): 89 nM
Ki (sigma-2 receptor [4]): 21 nM

Cc1ccc([C@@H](C)CC(CC(C)(C)O)NCC(C)C)cc1 (stereo partly shown) [Compound IXb]
Max Inhibition of Abeta (%) [1]: 97%
EC50 [1, 20]: 6900 nM
Ki (Sigma-1 receptors [3]): 190 nM
Ki (sigma-2 receptor [4]): 23 nM

Cc1ccccc1NC(=N)Nc1ccccc1C [DTG]
Max Inhibition of Abeta (%) [1]: 23%
EC50 [1, 21]: > 20000 nM
Functional Neuronal Phenotype ([1]; Table 11C): Inactive
Sigma 1 (Type of Activity) (Sigma-1 receptors [5]): (agonist)

COc1cc(CCC(C)NCc2ccc(Cl)cc2)ccc1O (stereo not shown) [Entry 2]
EC50 [1, 22]: 12000 nM

COc1cc(CCC(C)NCc2ccccc2)ccc1O (stereo not shown) [Entry 3]
EC50 [1, 22]: 20000 nM

COc1cc(CCC(C)NCCC(C)C)ccc1O (stereo not shown) [Entry 4]
EC50 [1, 22]: > 30000 nM

CNC(C)CCc1ccc(O)c(OC)c1 (stereo not shown) [Entry 5]
EC50 [1, 22]: 30000 nM

CC(C(O)c1ccc(O)cc1)N1CCC(Cc2ccccc2)CC1 (stereo not shown) [Ifenprodil]
Max Inhibition of Abeta (%) [1]: 38%
EC50 [1, 21]: > 20000 nM
Functional Neuronal Phenotype ([1]; Table 11C): Inactive

CC12CC3CC(C)(C1)CC(N)(C3)C2 [Memantine, memantine]
inhibition at 28 µM ([1]; Rattus norvegicus, Hippocampal neuron, 28 μM, read-out: Inhibition of oligomer effects): 50%

CCCN(CCC)CCc1ccc(OC)c(OCCc2ccccc2)c1 [NE100]
Ki (Sigma-1 receptors [7]; [19]): 1.1 nM
Sigma 1 (Type of Activity) (Sigma-1 receptors [5]): (antagonist)
Ki (sigma-2 receptor [6]; [17]): 170 nM

CCCN(CCC)CCc1ccc(OC)c(OCCc2ccccc2)c1 [NE 100]
Max Inhibition of Abeta (%) [1]: 98%
Functional Neuronal Phenotype ([1]; Table 11C): Antagonist
EC50 [1, 14]: 1300 nM
Functional Neuronal Phenotype ([1]; Table 11D): Antagonist
IC50 ([1]; Table 11D): 1300 nM
Ki (Sigma-1 receptors [7]; [18]): 1.1 nM
Ki (Sigma-1 receptors [7]; [23]): 1.1 nM
Ki (sigma-2 receptor [6]; [15]): 170 nM
Ki (sigma-2 receptor [6]; [16]): 170 nM

CCCN(CCC)CCc1ccc(OC)c(OCCc2ccccc2)c1 [NE-100]
Effect on Abeta oligomer-induced synapse loss [2]: completely eliminated synapse loss

COc1cccc2c1CCCC2CCCN1CCN(C2CCCCC2)CC1 (stereo not shown) [PB 28]
Max Inhibition of Abeta (%) [1]: 84%
Functional Neuronal Phenotype ([1]; Table 11C): Antagonist
EC50 [1, 14]: 1000 nM
Functional Neuronal Phenotype ([1]; Table 11D): Antagonist
IC50 ([1]; Table 11D): 1000 nM
Ki (sigma-2 receptor [6]; [15]): 0.8 nM
Ki (sigma-2 receptor [6]; [16]): 0.8 nM
Ki (sigma-2 receptor [6]; [17]): 0.8 nM

c1ccc(CCCCN2CCC(c3ccccc3)CC2)cc1 [PPBP]
Functional Neuronal Phenotype ([1]; Table 11C): Antagonist
EC50 [1, 14]: 10900 nM
Functional Neuronal Phenotype ([1]; Table 11D): Antagonist
IC50 ([1]; Table 11D): 10900 nM
Ki (Sigma-1 receptors [7]; [18]): 0.8 nM
Ki (Sigma-1 receptors [7]; [23]): 0.8 nM
Ki (Sigma-1 receptors [7]; [19]): 0.8 nM
Sigma 1 (Type of Activity) (Sigma-1 receptors [5]): (agonist)

O=C(OCCN1CCOCC1)C1(c2ccccc2)CCCCC1 [PRE-84]
Activity in membrane trafficking assay [1]: inactive
Max Inhibition of Abeta (%) [1]: 38%
Functional Neuronal Phenotype ([1]; Table 11C): Inactive
EC50 [1, 14]: > 30000 nM
Sigma 1 (Type of Activity) (Sigma-1 receptors [5]): (agonist)
Ki (sigma-2 receptor [6]; [17]): 13100 nM

COc1cc2c(cc1OC)CN(CCCCNC(=O)c1cc(C)ccc1OC)CC2 [RHM-1, N-[4-(3,4-dihydro-6,7-dimethoxyisoquinolin-2(1H)-yl)butyl]-2-methoxy-5-methylbenzamide]
Effect on Abeta oligomer trafficking deficits over the concentrations tested [1]: blocks oligomer-induced trafficking deficits at all concentrations tested
Action [8]: Antagonist
Block of SV-119-induced caspase-3 activation in tumor cells [9]: do not block caspase-3 activation
Caspase-3 activity induced in tumor cells [9]: did not induce caspase-3 activity
Caspase-3 activity induced in neurons [10]: did not induce caspase-3 activity
Nuclear morphology / nuclear intensity in neurons (neuronal cultures): did not decrease nuclear intensity

C=CCN1CCC2(C)c3cc(O)ccc3CC1C2C (stereo not shown) [SFK10047]
Sigma 1 (Type of Activity) (Sigma-1 receptors [5]): (agonist)
Ki (sigma-2 receptor [6]; [17]): 39700 nM

C=CCN1CC[C@]2(C)c3cc(O)ccc3C[C@H]1[C@H]2C [SKF 10,047]
Functional Neuronal Phenotype ([1]; Table 11C): Inactive
EC50 [1, 14]: > 30000 nM
Ki (sigma-2 receptor [6]; [15]): > 10000 nM

CN[C@H]1CC[C@@H](c2ccc(Cl)c(Cl)c2)c2ccccc21 [Sertraline]
Sigma 1 (Type of Activity) (Sigma-1 receptors [5]): (antagonist)

COc1ccc(C)cc1NC(=O)OC1CC2CCCC(C1)N2Cc1ccc(N(C)C)cc1 (stereo not shown) [WC-26]
EC50 [1, 21]: 1600 nM
Functional Neuronal Phenotype ([1]; Table 11C): Agonist
IC50 ([8]; Homo sapiens, SK-OV-3, tumor cell viability, 48 hrs): 65600 ± 6300 nM
Action [8]: Partial agonist
Nuclear morphology / nuclear intensity in neurons (neuronal cultures): caused significant abnormal nuclear morphology
Ki (Sigma-1 receptors [7]; [18]): 1400 nM
Ki (sigma-2 receptor [6]; read-out: S2 binding Ki, Table 11C): 3 nM
